CCS(=O)(=O)c1cccnc1S(=O)(=O)NC(=O)Nc1nc(OC)cc(OC)n1
solubility (mole fraction)
Settings	278.15 K	283.15 K	288.15 K	293.15 K	298.15 K	303.15 K	308.15 K	313.15 K	318.15 K	323.15 K
in DMF	5.64e-05	7.09e-05	8.7e-05	0.000106	0.000125	0.000148	0.000172	0.000199	0.000228	0.000262
in ethanol	1.91e-05	2.32e-05	2.82e-05	3.4e-05	4.03e-05	4.76e-05	5.52e-05	6.36e-05	7.34e-05	8.5e-05
in ethylene glycol	7.03e-06	8.83e-06	1.07e-05	1.28e-05	1.53e-05	1.79e-05	2.08e-05	2.38e-05	2.76e-05	3.19e-05
in methanol	2.17e-05	2.67e-05	3.26e-05	3.96e-05	4.7e-05	5.5e-05	6.37e-05	7.48e-05	8.56e-05	9.85e-05
in water	2.28e-07	2.82e-07	3.44e-07	4.13e-07	4.88e-07	5.76e-07	6.77e-07	7.75e-07	8.96e-07	1.02e-06

Source: BigSolDB 2.1
